One assay deals with KB. Description: Effective cytotoxic dose against KB cells was evaluated. The following applies: Homo sapiens, read-out: ED50 (the source's name). Type of assay: functional.
For another assay, the system named is CCRF-CEM. The assay is described as follows: Compound was evaluated for cytotoxicity against CCRF-CEM leukemia cell line. As to conditions: Homo sapiens. It is filed as functional.
For the next assay, the system named is MOLT-4. The assay is described as follows: Compound was evaluated for cytotoxicity against MOLT-4 leukemia cell line. It is filed as functional. The following applies: Homo sapiens.
The subject of a further assay is SR. Description: Compound was evaluated for cytotoxicity against SR leukemia cell line. Type of assay: functional. As to conditions: Homo sapiens.
Assay [1] relates to SF-539. The assay is described as follows: Compound was evaluated for cytotoxicity against SF-539 CNS cancer cell line. Type of assay: functional. The following applies: Homo sapiens.
The next assay deals with IGROV-1. Description: Compound was evaluated for cytotoxicity against IGROV1 Ovarian cancer cell line. It is filed as functional. As to conditions: Homo sapiens.
The test system of a further assay is NCI/ADR-RES. Description: Compound was evaluated for cytotoxicity against MCF 7/ADR-RES breast cancer cell line. As to conditions: Homo sapiens.
Assay [2] concerns NCI-H522. Description: Compound was evaluated for cytotoxicity against […] non small cell kung cancer cell line. It is filed as functional. The following applies: Homo sapiens.
The test system of another assay is MDA-N. The assay is described as follows: Compound was evaluated for cytotoxicity against MDA-N breast cancer cell line. It is filed as functional. The following applies: Homo sapiens.
For assay [3], the system named is MCF7. The assay is described as follows: Compound was evaluated for cytotoxicity against MCF-7 breast cancer cell line. It is filed as functional. As to conditions: Homo sapiens.
A further assay relates to MDA-MB-435. Description: Compound was evaluated for cytotoxicity against MDA-MB-435 breast cancer cell line. Type of assay: functional. As to conditions: Homo sapiens.
For a further assay, the system named is SK-MEL-5. Description: Compound was evaluated for cytotoxicity against SK-MEL-5 melanoma cell line. It is filed as functional. The following applies: Homo sapiens.
The test system of assay [4] is NCI-H23. The assay is described as follows: Compound was evaluated for cytotoxicity against NCI-H23 non small cell kung cancer cell line. It is filed as functional. The following applies: Homo sapiens.
The subject of assay [5] is SNB-19. Description: Compound was evaluated for cytotoxicity against SNB-19 CNS cancer cell line. Type of assay: functional. As to conditions: Homo sapiens.
Another assay deals with LOX IMVI. Description: Compound was evaluated for cytotoxicity against LOX IMVI melanoma cell line. It is filed as functional. The following applies: Homo sapiens.
The test system of assay [6] is NCI-H460. Description: Compound was evaluated for cytotoxicity against NCI-H460 non small cell kung cancer cell line. It is filed as functional. The following applies: Homo sapiens.
Assay [7] deals with HCT-15. The assay is described as follows: Compound was evaluated for cytotoxicity against HCT-15 colon cancer cell line. The following applies: Homo sapiens. Type of assay: functional.
For a further assay, the system named is OVCAR-3. Description: Compound was evaluated for cytotoxicity against OVCAR-3 Ovarian cancer cell line. It is filed as functional. The following applies: Homo sapiens.
Assay [8] has as its system SW-620. Description: Compound was evaluated for cytotoxicity against SW-620 colon cancer cell line. It is filed as functional. The following applies: Homo sapiens.
Assay [9] has as its system MCF7. The assay is described as follows: Compound was evaluated for cytotoxicity against MCF-7 breast cancer cell lines. It is filed as functional. The following applies: Homo sapiens.
Assay [10] concerns HCT-15. Description: Compound was evaluated for cytotoxicity against HCT-15 colon cancer cell line. The following applies: Homo sapiens.
Assay [11] relates to NCI-H522. Description: Compound was evaluated for cytotoxicity against NCI-H522 non small cell lung cancer cell line. The following applies: Homo sapiens.
For assay [12], the system named is NCI-H23. The assay is described as follows: Compound was evaluated for cytotoxicity against NCI-H23 non small cell lung cancer cell line. As to conditions: Homo sapiens. Type of assay: functional.
The subject of assay [13] is NCI-H460. The assay is described as follows: Compound was evaluated for cytotoxicity against NCI-H460 non small cell lung cancer cell line. As to conditions: Homo sapiens. It is filed as functional.
The subject of assay [14] is SNB-19. Description: Compound was evaluated for cytotoxicity against SNB-19 CNS cancer cell line. The following applies: Homo sapiens.
The test system of assay [15] is SF-539. Description: Compound was evaluated for cytotoxicity against SF-539 CNS cancer cell line. The following applies: Homo sapiens.
Assay [16] concerns SW-620. Description: Compound was evaluated for cytotoxicity against SW-620 colon cancer cell line. As to conditions: Homo sapiens.
Assay [17] concerns NCI-H522. Description: Compound was evaluated for cytotoxicity against […] non small cell lung cancer cell line. It is filed as functional. The following applies: Homo sapiens.

pEC50: −log10 of the molar value.

Consider `CC(=O)c1ccc2c(c1)C(=O)c1scc(C(C)=O)c1C2=O`, for which the pEC50 in the assay with KB was 6.35.
A word on the GI50: it is the concentration that inhibits growth by half. On to `CC(=O)c1ccc2c(c1)C(=O)c1sc(C(C)=O)cc1C2=O`, for which the GI50 with CCRF-CEM was 182 nM; in the assay with MOLT-4, 66.1 nM; in the assay on SR, 24.6 nM; with SF-539 [1], 355 nM; in the assay with IGROV-1 it was 427 nM; with NCI/ADR-RES, 324 nM. The GI50 with NCI-H522 [2] is 224 nM; in the assay on MDA-N, 316 nM; in the assay with MCF7 [3], 316 nM; with MDA-MB-435, 178 nM; in the assay with SK-MEL-5 it was 174 nM; in the assay on NCI-H23 [4], 603 nM. Besides, the GI50 in the assay on SNB-19 [5] is 1350 nM; with LOX IMVI it was 219 nM; with NCI-H460 [6] it was 363 nM; in the assay on HCT-15 [7], 40.7 nM; in the assay on OVCAR-3, 331 nM; in the assay on SW-620 [8], 204 nM. Further, the pEC50 with KB is ~5.82.
For `CC(=O)c1csc2c1C(=O)c1ccccc1C2=O`, the GI50 in the assay with CCRF-CEM was 1550 nM; in the assay with MCF7 [9] it was 2090 nM; in the assay on HCT-15 [10] it was 17400 nM; with MOLT-4, < 10 nM; with IGROV-1, 2450 nM; in the assay on NCI/ADR-RES, 2880 nM. Moreover, the GI50 was 1740 nM in the assay on NCI-H522 [11]; 1050 nM in the assay with NCI-H23 [12]; 933 nM with MDA-N; 1320 nM with NCI-H460 [13]; 324 nM in the assay on MDA-MB-435; 170 nM with SK-MEL-5. For the same molecule, the GI50 in the assay with SNB-19 [14] is 1780 nM; in the assay on LOX IMVI it was 2340 nM; with OVCAR-3, 3550 nM; with SF-539 [15] it was 2040 nM; in the assay on SW-620 [16], 2190 nM.
`CC(=O)c1cc2c(s1)C(=O)c1ccccc1C2=O`: the GI50 in the assay with CCRF-CEM is 1000 nM; in the assay on MOLT-4 it was 2040 nM; in the assay on SF-539 [1], 759 nM; in the assay on IGROV-1 it was 1780 nM; in the assay on NCI/ADR-RES it was 1910 nM; in the assay on NCI-H23 [12] it was 447 nM. The GI50 in the assay on MDA-N was 1200 nM; in the assay with NCI-H460 [13] it was 457 nM; in the assay with MCF7 [3] it was 1700 nM; in the assay with MDA-MB-435, 339 nM; with SK-MEL-5, 347 nM; with SNB-19 [5], 501 nM. Moreover, the GI50 was 347 nM in the assay on LOX IMVI; 708 nM in the assay with HCT-15 [7]; 501 nM in the assay with OVCAR-3; 407 nM in the assay on NCI-H522 [17]; 457 nM in the assay with SW-620 [8].
Take `CC(=O)c1cc2c(o1)C(=O)c1ccccc1C2=O` [NAPABUCASIN]: the pEC50 in the assay with KB is 5.38.

Source of the values: ChEMBL document CHEMBL1130606, “Synthesis and cytotoxicity of acetyl-4H,9H-naphtho[2,3-b]thiophene-4,9-diones” (1998).
